{
  "source": "patent US20050196806A1",
  "about": "“Prostate specific antigen oligoepitope peptide” (The Government of the USA, as represented by the Secretary, …, priority 1996, published 2005)",
  "key": {"[1]": {"biological_target": "T1, human HLA A2 molecules (Homo sapiens, UniProt P04439, D140Y/D185E/D98H/E176V/E277Q/G131W/G231S/I119V/I121R/I166T/I218V/L300P/L318F/N151K/N90K/P208A/P217A/Q86G/Q94H/R138H/R169H/T345S)", "T1 construct": "endogenous in cells; host or cells: T2 cells (174CEM.T2)", "test": "T2 cell binding assay (PSA peptide binding assay, Example II)", "settings": "peptides at 50 μg/ml, None = 127.25", "source_text": "The amino acid sequence of human PSA was scanned using a predictive algorithm that combines a search for anchor residues with numerical assignments to all residues at all positions. The T2 cell binding assay was then used to determine which peptides bound human HLA A2 molecules. […] Table 7 gives the amino acid sequence of these peptides and compares them to corresponding sequences of HGK and PKA."}, "[2]": {"tested_on": "PBMC from normal healthy donors expressing the HLA A2 class 1 allele", "test": "Establishment of human T cell lines by pulsing PBMC with peptide and IL-2", "type": "cell-based", "settings": "donors with T cell line / donors tested; PBMC pulsed with peptide and IL-2", "source_text": "Cytotoxic T-cells specific for PSA can be established from peripheral blood mononuclear cells (PBMC) obtained from a host immunized as discussed above. For example, PBMC can be separated by using Lymphocyte Separation Medium gradient (Organon Teknika, Durham, N.C., USA) as previously described [Boyum et al, Scand J. Clin Lab Invest 21:77-80 (1968)]. Washed PBMC are resuspended in a complete medium, for example, RPMI 1640 (GIBCO) supplemented with 10% pool human AB serum (Pel-Freeze Clinical System, Brown Dear, Wisc., USA), 2 mM glutamine, 100 U/ml penicillin and 100 μg/ml of streptomycin (GIBCO). PBMC at a concentration of about 2×10^5 cells in complete medium in a volume of, for example 100 μl are added into each well of a 96-well flat-bottom assay plate (Costar, Cambridge, Mass., USA). The antigen or peptides are added into the cultures in a final concentration of about 50 μg/ml and incubated at 37° C. in a humidified atmosphere containing 5% CO2 for 5 days. After removal of peptide containing media, the cultures are provided with fresh human IL-2 (10 U/ml) after 5 days and replenished with IL-2 containing medium every 3 days. Primary cultures are restimulated with the same peptide (50 μg/ml) on day 16. 5×10^5 irradiated (4,000 rad) autologous PBMC are added in a volume of about 50 μl complete medium as antigen-presenting cells (APC). […]"}, "[3]": {"tested_on": "T2 cells", "test": "Cytotoxic assay of PSA peptide specific T cells against T2 cells", "type": "cell-based, human", "settings": "24 hour assay, E:T ratio 25:1"}, "[4]": {"tested_on": "LNCAP PSA expressing human prostate cancer cell line", "test": "Cytotoxic assay of PSA peptide specific T cells against LNCAP (Example III)", "type": "cell-based", "settings": "T-Donor A T-cell line; 24 hour assay, E:T ratio 25:1; listed as 141-150", "source_text": "Four of the T cell lines derived from three different individuals were then assays for their ability to lyse human cells (Table 9). […] No lysis was seen using the PSA negative human colon cancer cell line COLO-205. While 80% lysis was seen using the LNCAP PSA expressing human prostate cancer cell line. When employing the NK target K562, which measures non-specific lysis due to NK cell activity, only 23% lysis was obtained. Similar results were seen employing a different T cell line obtained from the same patient which was derived from pulsing with PSA peptide 154-163. Two additional T cell lines which were derived from peptide 154-163 were also analyzed. One was from a normal donor (T-1538) and one was from a prostate cancer patient (T-PC2; T Donor C)."}, "[5]": {"tested_on": "PBLs isolated from male HLA-A2001+ donors", "test": "Limiting dilution analysis of CTL precursor frequency", "type": "cell-based, human", "settings": "for Number of precursors (precursor frequency): calculated by X^2 minimization; for % of negative microcolonies, 10,000: two cycles of stimulation with the peptide, targets CIRA2 pulsed 3 h, cold K562", "method": "Limiting dilution assays were used for the determination of precursor frequencies to PSA-1, PSA-3 and PSA-OP. Various number of PBMCs were seeded in 96-well flat bottom plates (Coming Costar) with 1×10^4 autologous PBMC irradiated with 4,000 rads and incubated with 50 μg/ml of PSA peptide. Cells were cultured in complete medium as described previously. At least 48 cultures were set up for each dilution. Cultures were incubated for 5 days at 37° C. in a humidified atmosphere containing 5% CO2 and then provided with fresh medium containing human IL-2 for 11 days, with IL-2-containing medium being replenished every 72 hr as shown below for CTLs generation. After two cycles of stimulation specific cytotoxic activity was tested for each single well, against CIR-A2 target cells with or without incubation with peptide. Cytotoxic assays were similar to the method described above. The unlabelled K562 cells were added to the microwells containing responder cells. After 1 hr incubation at 37° C. target cells were added into each well and incubated for 6 hrs at 37° C. Precursor frequencies were calculated by X^2 minimization."}},
  "note": "Values joined by “and” are separate entries in the source; they are usually repeats but may differ in a detail not shown here. Identical values can stand only once. Marks after values point to notes of the source that are not given here.",
  "data": [
    {"sequence": "FLTPKKLQCV [PSA-1, ID No. 1]", "values": [
      {"measurement": "MAb A2, 69: Mean channel fluorescent intensity", "setting": "[1]; listed as 141-150", "value": "positive"},
      {"measurement": "MAb A2, 69: Mean channel fluorescent intensity", "setting": "[1]; listed as PSA 141-150", "value": 230.34},
      {"measurement": "T cell lines established from normal donors", "setting": "[2]", "value": "5/6"},
      {"measurement": "% specific release (lysis), T2", "setting": "[3]; T-Donor A T-cell line derived with the peptide, 111In release", "value": "10^a %"},
      {"measurement": "% specific release (lysis), T2 + peptide", "setting": "[3]; T-Donor A T-cell line", "value": "40^b %"},
      {"measurement": "% specific release (lysis), LNCAP", "setting": "[4]", "value": "80% and 80^b %"},
      {"measurement": "% of negative microcolonies, 500", "setting": "[5]; T/PSA-OP 2 donor", "value": 95.8, "unit": "%"},
      {"measurement": "% of negative microcolonies, 1,000", "setting": "[5]; T/PSA-OP 2 donor", "value": 93.7, "unit": "%"},
      {"measurement": "% of negative microcolonies, 5,000", "setting": "[5]; T/PSA-OP 2 donor", "value": 75.0, "unit": "%"},
      {"measurement": "Number of precursors (precursor frequency)", "setting": "[5]; T/PSA-OP 2 donor", "value": "1/14695"},
      {"measurement": "% of negative microcolonies, 10,000", "setting": "[5]; T/PSA-OP 2 donor", "value": 47.9, "unit": "%"},
      {"measurement": "% of negative microcolonies, 500", "setting": "[5]; T/PSA-OP 3 donor", "value": 100.0, "unit": "%"},
      {"measurement": "% of negative microcolonies, 1,000", "setting": "[5]; T/PSA-OP 3 donor", "value": 100.0, "unit": "%"},
      {"measurement": "% of negative microcolonies, 5,000", "setting": "[5]; T/PSA-OP 3 donor", "value": 97.9, "unit": "%"},
      {"measurement": "Number of precursors (precursor frequency)", "setting": "[5]; T/PSA-OP 3 donor", "value": "1/181480"},
      {"measurement": "% of negative microcolonies, 10,000", "setting": "[5]; T/PSA-OP 3 donor", "value": 93.7, "unit": "%"}
    ]}
  ]
}
